# Values of other authors as cited in patent publication US20190320688A1, “COMPOSITIONS FOR PREVENTING AND RELIEVING HANGOVER & LIVER DAMAGE WHICH OCCUR DUE TO ALCOHOL CONSUMPTION” (priority 2018, published 2019).
# Details: biological activities listed in background table
substance,measurement,value
Methylcurcumin,Activity,L. amazonensis
